Test results as given in US9179694B2, “Method and composition for enhancing milk production and milk component concentrations” (PURINA ANIMAL NUTRITION LLC, priority 2003, dated 2015).
Marks after values point to notes of the source that are not given here.

Assay: Total solids content of produced milk in sorbitol feeding trials
Type: in vivo, Holstein cows
Conditions: for Total Solids in Produced Milk: Pre-Partum Trial #1 (75/0/0 g/day in wk −3..−1/+1..+4/+5..+8)
Method: To determine the weight percent total solids, wet basis, in a sample, the actual weight of total solids is determined by analyzing the sample in accordance with Method #925.23 (33.2.09) of Official Methods of Analysis, Association of Official Analytical Chemists (AOAC) (16th Ed., 1995). The weight percent total solids, wet basis, is then calculated by dividing the actual weight of total solids by the actual weight of the sample. Each cow of each of the six different trials (Control Trial #1, Control Trial #2, Pre-Partum Trial #1, Pre-Partum Trial #2, Pre/Post Trial #1, and Pre/Post Trial #2) was milked three times daily and the weight of produced milk by each cow was recorded at each milking. The milk from each cow was sampled once per week (⅓ of the sample volume from each of the three milkings occurring on the weekly milk sampling day) and was analyzed for true protein, total fat, lactose, and total solids, as detailed in the property determination and characterization techniques presented above. Additionally, samples of blood were periodically obtained from each cow during the four trials (Control Trial 2, Pre-Partum Trial #2, Pre/Post Trial #1, and Pre/Post Trial #2) encompassed in Example Two and were analyzed for non-esterified fatty acid (NEFA) content as detailed in the property determination and characterization techniques presented above. No NEFA analysis was conducted on the cows employed in Control Trial #1 or Pre-Partum Trial #1 that are the subject of Example One. Example One includes Control Trial #1 and Pre-Partum Trial #1. Both primiparious cows and multiparious cows were included in Control Trial #1 and Pre-Partum Trial #1. Five primiparious cows and fifteen multiparious cows were included in Control Trial #1; likewise, five primiparious cows and fifteen multiparious cows were included in Pre-Partum Trial #1. All cows included in Control Trial #1 and Pre-Partum Trial #1 were Holsteins. Example Two includes Control Trial #2, Pre-Partum Trial #2, Pre/Post Trial #1, and Pre/Post Trial #2. Only multiparious, Holstein cows were included in Control Trial #2, […], Pre/Post Trial #1, and Pre/Post Trial #2. Eighteen multiparious cows were included in both Control Trial #2 and Pre-Partum Trial #2, while sixteen multiparious cows were included in Pre/Post Trial #1 and seventeen multiparious cows were included in Pre/Post Trial #2.

## OC[C@@H](O)[C@@H](O)[C@H](O)[C@@H](O)CO [sorbitol]
Multiparious cows, weeks +1 through +8
  Total Solids in Produced Milk: 12.0^ab wt %
Primiparious cows, weeks +1 through +8
  Total Solids in Produced Milk: 13.0 wt %
Pre-Partum Trial #1 (75 g/day wk −3..−1 only) versus Control Trial #1, primiparious cows, weeks +1 through +8
  increase in total solids concentration in the produced milk: 7.4%
Pre-Partum Trial #2 (75/0/100 g/day in wk −3..−1/+1..+4/+5..+8), multiparious cows, week +1
  Total Solids Content of Produced Milk: 14.4^a weight %
Pre-Partum Trial #2 (75/0/100 g/day in wk −3..−1/+1..+4/+5..+8), multiparious cows, week +2
  Total Solids Content of Produced Milk: 13.25 weight %
Pre-Partum Trial #2 (75/0/100 g/day in wk −3..−1/+1..+4/+5..+8), multiparious cows, week +3
  Total Solids Content of Produced Milk: 12.54 weight %
Pre-Partum Trial #2 (75/0/100 g/day in wk −3..−1/+1..+4/+5..+8), multiparious cows, week +4
  Total Solids Content of Produced Milk: 11.76^a weight %
Pre-Partum Trial #2 (75/0/100 g/day in wk −3..−1/+1..+4/+5..+8), multiparious cows, week +5
  Total Solids Content of Produced Milk: 11.60^a weight %
Pre-Partum Trial #2 (75/0/100 g/day in wk −3..−1/+1..+4/+5..+8), multiparious cows, week +6
  Total Solids Content of Produced Milk: 11.43^a weight %
Pre-Partum Trial #2 (75/0/100 g/day in wk −3..−1/+1..+4/+5..+8), multiparious cows, week +7
  Total Solids Content of Produced Milk: 11.55 weight %
Pre-Partum Trial #2 (75/0/100 g/day in wk −3..−1/+1..+4/+5..+8), multiparious cows, week +8
  Total Solids Content of Produced Milk: 11.45^ab weight %
Pre-Partum Trial #2 (75/0/100 g/day in wk −3..−1/+1..+4/+5..+8), multiparious cows, weeks +1 through +4
  Total Solids Content of Produced Milk: 12.94^a weight %
Pre-Partum Trial #2 (75/0/100 g/day in wk −3..−1/+1..+4/+5..+8), multiparious cows, weeks +1 through +8
  Total Solids Content of Produced Milk: 12.23^a weight %
Pre-Partum Trial #2 (75/0/100 g/day in wk −3..−1/+1..+4/+5..+8), multiparious cows, weeks +5 through +8
  Total Solids Content of Produced Milk: 11.51^a weight %
Pre/Post Trial #1 (150/125/100 g/day in wk −3..−1/+1..+4/+5..+8), multiparious cows, week +1
  Total Solids Content of Produced Milk: 15.3^ab weight %
Pre/Post Trial #1 (150/125/100 g/day in wk −3..−1/+1..+4/+5..+8), multiparious cows, week +1, two-trial comparison with Control Trial #2 (Table 26)
  Total Solids Content of Produced Milk: 15.3 weight %
Pre/Post Trial #1 (150/125/100 g/day in wk −3..−1/+1..+4/+5..+8), multiparious cows, week +2
  Total Solids Content of Produced Milk: 12.28 weight %
Pre/Post Trial #1 (150/125/100 g/day in wk −3..−1/+1..+4/+5..+8), multiparious cows, week +2, two-trial comparison with Control Trial #2 (Table 26)
  Total Solids Content of Produced Milk: 13.28 weight %
Pre/Post Trial #1 (150/125/100 g/day in wk −3..−1/+1..+4/+5..+8), multiparious cows, week +3
  Total Solids Content of Produced Milk: 12.84 weight %
Pre/Post Trial #1 (150/125/100 g/day in wk −3..−1/+1..+4/+5..+8), multiparious cows, week +3, two-trial comparison with Control Trial #2 (Table 26)
  Total Solids Content of Produced Milk: 12.84 weight %
Pre/Post Trial #1 (150/125/100 g/day in wk −3..−1/+1..+4/+5..+8), multiparious cows, week +4
  Total Solids Content of Produced Milk: 12.54^c weight %
Pre/Post Trial #1 (150/125/100 g/day in wk −3..−1/+1..+4/+5..+8), multiparious cows, week +4, two-trial comparison with Control Trial #2 (Table 26)
  Total Solids Content of Produced Milk: 12.54 weight %
Pre/Post Trial #1 (150/125/100 g/day in wk −3..−1/+1..+4/+5..+8), multiparious cows, week +5
  Total Solids Content of Produced Milk: 12.17^ab weight %
Pre/Post Trial #1 (150/125/100 g/day in wk −3..−1/+1..+4/+5..+8), multiparious cows, week +5, two-trial comparison with Control Trial #2 (Table 26)
  Total Solids Content of Produced Milk: 12.17 weight %
Pre/Post Trial #1 (150/125/100 g/day in wk −3..−1/+1..+4/+5..+8), multiparious cows, week +6
  Total Solids Content of Produced Milk: 12.08^b weight %
Pre/Post Trial #1 (150/125/100 g/day in wk −3..−1/+1..+4/+5..+8), multiparious cows, week +6, two-trial comparison with Control Trial #2 (Table 26)
  Total Solids Content of Produced Milk: 12.08 weight %
Pre/Post Trial #1 (150/125/100 g/day in wk −3..−1/+1..+4/+5..+8), multiparious cows, week +7
  Total Solids Content of Produced Milk: 11.71 weight %
Pre/Post Trial #1 (150/125/100 g/day in wk −3..−1/+1..+4/+5..+8), multiparious cows, week +7, two-trial comparison with Control Trial #2 (Table 26)
  Total Solids Content of Produced Milk: 11.71 weight %
Pre/Post Trial #1 (150/125/100 g/day in wk −3..−1/+1..+4/+5..+8), multiparious cows, week +8
  Total Solids Content of Produced Milk: 12.06^b weight %
Pre/Post Trial #1 (150/125/100 g/day in wk −3..−1/+1..+4/+5..+8), multiparious cows, week +8, two-trial comparison with Control Trial #2 (Table 26)
  Total Solids Content of Produced Milk: 12.06 weight %
Pre/Post Trial #1 (150/125/100 g/day in wk −3..−1/+1..+4/+5..+8), multiparious cows, weeks +1 through +4
  Total Solids Content of Produced Milk: 13.49^ab weight %
Pre/Post Trial #1 (150/125/100 g/day in wk −3..−1/+1..+4/+5..+8), multiparious cows, weeks +1 through +4, two-trial comparison with Control Trial #2 (Table 26)
  Total Solids Content of Produced Milk: 13.49 weight %
Pre/Post Trial #1 (150/125/100 g/day in wk −3..−1/+1..+4/+5..+8), multiparious cows, weeks +1 through +8
  Total Solids Content of Produced Milk: 12.76^b weight %
Pre/Post Trial #1 (150/125/100 g/day in wk −3..−1/+1..+4/+5..+8), multiparious cows, weeks +1 through +8, two-trial comparison with Control Trial #2 (Table 26)
  Total Solids Content of Produced Milk: 12.76 weight %
Pre/Post Trial #1 (150/125/100 g/day in wk −3..−1/+1..+4/+5..+8), multiparious cows, weeks +5 through +8
  Total Solids Content of Produced Milk: 12.02^b weight %
Pre/Post Trial #1 (150/125/100 g/day in wk −3..−1/+1..+4/+5..+8), multiparious cows, weeks +5 through +8, two-trial comparison with Control Trial #2 (Table 26)
  Total Solids Content of Produced Milk: 12.02 weight %
Pre/Post Trial #1 (150/125/100 g/day) versus Control Trial #2, multiparious cows, weeks +1 through +4 (Table 26)
  increase in total solids concentration in milk: more than 3.7%
Pre/Post Trial #1 (150/125/100 g/day) versus Control Trial #2, multiparious cows, weeks +1 through +8
  greater total solids concentration in milk: 4.6%
Pre/Post Trial #1 (150/125/100 g/day) versus Control Trial #2, multiparious cows, weeks +1 through +8 (Table 26)
  increase in total solids concentration in milk: ~4.6%
Pre/Post Trial #1 (150/125/100 g/day) versus Control Trial #2, multiparious cows, weeks +5 through +8
  greater total solids concentration in milk: 5.2%
Pre/Post Trial #1 (150/125/100 g/day) versus Control Trial #2, multiparious cows, weeks +5 through +8 (Table 26)
  increase in total solids concentration in milk: more than 5.2%
Pre/Post Trial #1 (150/125/100 g/day) versus Pre-Partum Trial #2 (75/0/100 g/day), multiparious cows, weeks +1 through +8
  greater total solids concentration in milk: 4.3%
Pre/Post Trial #1 (150/125/100 g/day) versus Pre-Partum Trial #2 (75/0/100 g/day), multiparious cows, weeks +5 through +8
  greater total solids concentration in milk: 4.4%
Pre/Post Trial #2 (75/75/100 g/day in wk −3..−1/+1..+4/+5..+8), multiparious cows, week +1
  Total Solids Content of Produced Milk: 15.6^b weight %
Pre/Post Trial #2 (75/75/100 g/day in wk −3..−1/+1..+4/+5..+8), multiparious cows, week +2
  Total Solids Content of Produced Milk: 13.61 weight %
Pre/Post Trial #2 (75/75/100 g/day in wk −3..−1/+1..+4/+5..+8), multiparious cows, week +3
  Total Solids Content of Produced Milk: 12.92 weight %
Pre/Post Trial #2 (75/75/100 g/day in wk −3..−1/+1..+4/+5..+8), multiparious cows, week +4
  Total Solids Content of Produced Milk: 12.43^bc weight %
Pre/Post Trial #2 (75/75/100 g/day in wk −3..−1/+1..+4/+5..+8), multiparious cows, week +5
  Total Solids Content of Produced Milk: 12.38^b weight %
Pre/Post Trial #2 (75/75/100 g/day in wk −3..−1/+1..+4/+5..+8), multiparious cows, week +6
  Total Solids Content of Produced Milk: 11.89^ab weight %
Pre/Post Trial #2 (75/75/100 g/day in wk −3..−1/+1..+4/+5..+8), multiparious cows, week +7
  Total Solids Content of Produced Milk: 11.64 weight %
Pre/Post Trial #2 (75/75/100 g/day in wk −3..−1/+1..+4/+5..+8), multiparious cows, week +8
  Total Solids Content of Produced Milk: 11.57^ab weight %
Pre/Post Trial #2 (75/75/100 g/day in wk −3..−1/+1..+4/+5..+8), multiparious cows, weeks +1 through +4
  Total Solids Content of Produced Milk: 13.63^b weight %
Pre/Post Trial #2 (75/75/100 g/day in wk −3..−1/+1..+4/+5..+8), multiparious cows, weeks +1 through +8
  Total Solids Content of Produced Milk: 12.73^b weight %
Pre/Post Trial #2 (75/75/100 g/day in wk −3..−1/+1..+4/+5..+8), multiparious cows, weeks +5 through +8
  Total Solids Content of Produced Milk: 11.87^ab weight %
Pre/Post Trial #2 (75/75/100 g/day) versus Control Trial #2, multiparious cows, weeks +1 through +4
  greater total solids concentration in milk: 4.8%
Pre/Post Trial #2 (75/75/100 g/day) versus Control Trial #2, multiparious cows, weeks +1 through +8
  greater total solids concentration in milk: 4.3%
Pre/Post Trial #2 (75/75/100 g/day) versus Pre-Partum Trial #2 (75/0/100 g/day), multiparious cows, weeks +1 through +4
  greater total solids concentration in milk: 5.3%
Pre/Post Trial #2 (75/75/100 g/day) versus Pre-Partum Trial #2 (75/0/100 g/day), multiparious cows, weeks +1 through +8
  greater total solids concentration in milk: 4.1%
Average of means of Pre-Partum Trial #2, Pre/Post Trial #1 and Pre/Post Trial #2 versus Control Trial #2, multiparious cows, weeks +1 through +4
  increase in total solids concentration in milk: 2.7%
Average of means of Pre-Partum Trial #2, Pre/Post Trial #1 and Pre/Post Trial #2 versus Control Trial #2, multiparious cows, weeks +1 through +8
  increase in total solids concentration in milk: 1.1%
Average of means of Pre-Partum Trial #2, Pre/Post Trial #1 and Pre/Post Trial #2 versus Control Trial #2, multiparious cows, weeks +5 through +8
  increase in total solids concentration in milk: 3.3%
